These results are taken from ChEMBL document CHEMBL1132619 (J Med Chem, 1999).

For test [1], the target named is Histamine H3 receptor (Rattus norvegicus, UniProt Q9QYN8). Description: In vitro binding affinity was measured against Histamine H3 receptor on rat cerebral cortex. The test is classed as tissue-based.
Test [2] has as its target Histamine H3 receptor (Cavia porcellus) (UniProt Q9JI35). The conditions noted are these: Jejunum.
Test [3] addresses Histamine H3 receptor (Rattus norvegicus) (UniProt Q9QYN8). The conditions noted are these: Cerebral cortex.
Test [4] deals with Histamine H2 receptor (Cavia porcellus) (UniProt P47747). The conditions noted are these: Cardiac atrium.
For test [5], the target named is Histamine H1 receptor (Cavia porcellus) (UniProt P31389). The conditions noted are these: Jejunum.
Histamine H1 receptor (Cavia porcellus), sequence (P31389 whole entry): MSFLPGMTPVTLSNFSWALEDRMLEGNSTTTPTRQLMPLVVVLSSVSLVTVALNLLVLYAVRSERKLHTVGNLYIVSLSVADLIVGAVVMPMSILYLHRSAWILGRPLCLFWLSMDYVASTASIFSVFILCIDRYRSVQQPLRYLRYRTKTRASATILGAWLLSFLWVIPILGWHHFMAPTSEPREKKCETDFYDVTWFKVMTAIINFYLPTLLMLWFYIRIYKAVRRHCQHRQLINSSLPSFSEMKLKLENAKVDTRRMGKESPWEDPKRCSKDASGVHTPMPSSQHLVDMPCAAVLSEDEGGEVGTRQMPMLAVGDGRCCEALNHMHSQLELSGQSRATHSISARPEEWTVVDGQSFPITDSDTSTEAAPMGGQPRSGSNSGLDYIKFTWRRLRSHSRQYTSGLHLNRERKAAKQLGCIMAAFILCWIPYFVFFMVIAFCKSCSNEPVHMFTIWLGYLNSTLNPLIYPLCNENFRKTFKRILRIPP

Histamine H3 receptor (Cavia porcellus), sequence (Q9JI35 whole entry): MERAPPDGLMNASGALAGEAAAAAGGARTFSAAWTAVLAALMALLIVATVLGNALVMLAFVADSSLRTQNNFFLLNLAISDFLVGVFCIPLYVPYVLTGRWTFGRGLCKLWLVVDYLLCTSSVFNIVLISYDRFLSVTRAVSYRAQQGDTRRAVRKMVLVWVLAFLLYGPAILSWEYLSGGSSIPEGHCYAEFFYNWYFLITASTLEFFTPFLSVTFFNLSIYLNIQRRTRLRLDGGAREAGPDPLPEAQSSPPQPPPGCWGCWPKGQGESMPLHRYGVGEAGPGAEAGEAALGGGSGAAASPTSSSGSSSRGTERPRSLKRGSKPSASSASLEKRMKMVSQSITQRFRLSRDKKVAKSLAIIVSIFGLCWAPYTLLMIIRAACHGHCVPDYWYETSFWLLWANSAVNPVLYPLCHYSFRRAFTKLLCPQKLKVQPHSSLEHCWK
Histamine H2 receptor (Cavia porcellus), sequence (P47747 whole entry): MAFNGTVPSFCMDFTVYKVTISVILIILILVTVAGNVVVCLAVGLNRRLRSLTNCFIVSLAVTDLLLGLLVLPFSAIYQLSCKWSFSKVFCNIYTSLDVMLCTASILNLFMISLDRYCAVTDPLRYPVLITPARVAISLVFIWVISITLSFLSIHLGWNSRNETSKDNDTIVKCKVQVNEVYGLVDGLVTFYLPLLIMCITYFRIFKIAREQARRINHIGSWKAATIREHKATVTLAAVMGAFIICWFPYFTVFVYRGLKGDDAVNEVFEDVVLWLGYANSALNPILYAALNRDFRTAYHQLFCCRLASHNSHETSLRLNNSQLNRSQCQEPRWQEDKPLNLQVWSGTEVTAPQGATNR
Histamine H3 receptor (Rattus norvegicus), sequence (Q9QYN8 whole entry): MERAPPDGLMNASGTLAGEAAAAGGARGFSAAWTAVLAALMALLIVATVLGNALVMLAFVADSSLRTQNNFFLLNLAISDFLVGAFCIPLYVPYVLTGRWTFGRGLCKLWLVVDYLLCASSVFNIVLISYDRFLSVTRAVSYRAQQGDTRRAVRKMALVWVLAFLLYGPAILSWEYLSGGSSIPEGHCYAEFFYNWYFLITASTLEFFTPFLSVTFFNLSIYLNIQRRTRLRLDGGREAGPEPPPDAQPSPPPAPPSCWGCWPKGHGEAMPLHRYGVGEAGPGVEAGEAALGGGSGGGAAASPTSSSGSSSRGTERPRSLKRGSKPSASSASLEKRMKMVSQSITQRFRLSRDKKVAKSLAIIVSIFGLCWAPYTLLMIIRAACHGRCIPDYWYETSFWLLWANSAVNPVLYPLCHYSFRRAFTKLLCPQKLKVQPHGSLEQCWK
Histamine H3 receptor, sequence (Q9QYN8 whole entry): as above

The term Ki denotes a measure of affinity in units of concentration, obtained from inhibition or displacement. In turn, `N[C@H]1C[C@@H]1c1c[nH]cn1` [VUF-5297] showed a Ki in test [1] of 1.74 nM. In addition, the pD2 was determined as 6.64 in test [2], 7.08 in test [3], 4.8 in test [4] and 5 in test [5].
Regarding `NCCc1c[nH]cn1`, the pD2 in test [2] was 7.4; in test [3] it was 7.4; in test [4], 6.1; in test [5], 6.6.
On to `N[C@@H]1C[C@H]1c1cnc[nH]1` [VUF-5296], for which, in test [1], the inhibition constant Ki is 25.1 nM.
Regarding `N[C@@H]1C[C@H]1c1c[nH]cn1`, the pD2 in test [2] stood at 6.15; in test [3], 5.75; in test [4] it was 4.9; in test [5], 4.5.
